Results taken from patent US6995188B2 (priority 2002, dated 2006).
Like-named read-outs stand apart in the source and are kept apart here.

Experiments:
U937/PR9 cells = assay type: cell-based, human
[1] = Swiss Webster, mouse, in vivo; for Dead/Total Number / Dead/Total Number for IP Administration: ip
[2] = system: P388 lymphocytic leukemia cells; details: mouse, in vivo, ip, 100 mg/kg; cited from earlier work
[3] = system: blood mononuclear cells from leukemia patients; assay type: cell-based, human
[4] = SGLU1 multiple dose toxicology in vivo; parameters: species or system mice; key to Death: “—” indicates no compound-related finding
Protocol: Further studies were performed to determine the dose-limiting toxicity associated with the administration of repeated doses in groups of mice. Tables 11–16 below describe the results of the multiple-dose toxicology studies for MER-1 and Tables 17–21 describe results of the multiple-dose toxicology of SGLU-1.
The results of the SGLU-1 Multiple Dose I.V. are summarized as follows: Five mice/sex were administered 5 daily intravenous injections of SGLU via the tail vein at doses of 50, 100, 150, 200, 250, 300, and 350 mg/kg/day. All surviving mice were held for 28 days, sacrificed, and designated tissues collected, formalin fixed, and examined.

C[As](C)SC[C@H](NC(=O)CC[C@H](N)C(=O)O)C(=O)NCC(=O)O [SGLU1, S-(dimethylarsino) glutathione]
influence of functional PML/RARalpha gene on sensitivity (U937/PR9 cells): no influence on the sensitivity of the cells | tolerance (mortality) [1]: tolerated the 178 mg/kg and the 285 mg/kg doses of SGLU1 well | Dead/Total Number ([1]; 178 mg/kg): 0/5 | Dead/Total Number ([1]; 285 mg/kg): 1/5 | Dead/Total Number for IP Administration ([1]; 318 mg/kg): 0/5 | Dead/Total Number ([1]; 357 mg/kg): 5/5 | Dead/Total Number for IP Administration ([1]; 375 mg/kg): 4/5 | Dead/Total Number for IV Administration ([1]; 318 mg/kg): 1/5 | Dead/Total Number for IV Administration ([1]; 375 mg/kg): 5/5 | % T/C [2]: 164% | activity against blood cells from patients with leukemia [3]: significant activity against blood tumor cells from patients with leukemia | Clinical Signs ([4]; 50 mg/kg/day IV daily x5): None. | Death ([4]; 50 mg/kg/day IV daily x5): — | Kidney: Murine progressive glomerulonephropathy, incidence ([4]; 50 mg/kg/day, F): 1/5 | Liver: Pyogranuloma, focal, incidence ([4]; 50 mg/kg/day, F): 1/5 | Lung: Hemorrhage, focal, incidence ([4]; 50 mg/kg/day, F): 1/5 | Number of animals/dose that tolerated 5 doses ([4]; 50 mg/kg/day, F): 5/5 | Body Weights Avg. ([4]; 50 mg/kg/day, Female): 25 grams | Liver: Pyogranuloma, focal, incidence ([4]; 50 mg/kg/day, M): 1/5 | Lung: Atelectasis, incidence ([4]; 50 mg/kg/day, M): 1/5 | Lung: Pleural adhesion, focal, incidence ([4]; 50 mg/kg/day, M): 1/5 | Number of animals/dose that tolerated 5 doses ([4]; 50 mg/kg/day, M): 5/5 | Body Weights Avg. ([4]; 50 mg/kg/day, Male): 25 grams | Clinical Signs ([4]; 100 mg/kg/day IV daily x5): None. | Death ([4]; 100 mg/kg/day IV daily x5): — | Kidney: Inflammation, focal, incidence ([4]; 100 mg/kg/day, F): 2/5 | Liver: Pyogranuloma, focal, incidence ([4]; 100 mg/kg/day, F): 5/5 | Number of animals/dose that tolerated 5 doses ([4]; 100 mg/kg/day, F): 5/5 | Body Weights Avg. ([4]; 100 mg/kg/day, Female): 24 grams | Liver: Pyogranuloma, focal, incidence ([4]; 100 mg/kg/day, M): 1/5 | Number of animals/dose that tolerated 5 doses ([4]; 100 mg/kg/day, M): 5/5 | Body Weights Avg. ([4]; 100 mg/kg/day, Male): 23 grams | Clinical Signs ([4]; 150 mg/kg/day IV daily x5): None. | Death ([4]; 150 mg/kg/day IV daily x5): — | Liver: Inflammation, portal, incidence ([4]; 150 mg/kg/day, F): 2/5 | Liver: Pyogranuloma, focal, incidence ([4]; 150 mg/kg/day, F): 3/5 | Number of animals/dose that tolerated 5 doses ([4]; 150 mg/kg/day, F): 5/5 | Body Weights Avg. ([4]; 150 mg/kg/day, Female): 25 grams | Kidney: Inflammation, focal, incidence ([4]; 150 mg/kg/day, M): 1/5 | Liver: Pyogranuloma, focal, incidence ([4]; 150 mg/kg/day, M): 1/5 | Lung: Inflammation, focal, incidence ([4]; 150 mg/kg/day, M): 1/5 | Number of animals/dose that tolerated 5 doses ([4]; 150 mg/kg/day, M): 5/5 | Tail: Acute necrosis with vasculitis, thrombosis, and hemorrhage, incidence ([4]; 150 mg/kg/day, M): 1/5 | Tail: Ulcerative dermatitis, incidence ([4]; 150 mg/kg/day, M): 1/5 | Testes: Seminiferous tubular degeneration, incidence ([4]; 150 mg/kg/day, M): 1/5 | Body Weights Avg. ([4]; 150 mg/kg/day, Male): 23 grams | Clinical Signs ([4]; 200 mg/kg/day IV daily x5): 2 F tail necrosis: amputate | Death ([4]; 200 mg/kg/day IV daily x5): — | Kidney: Inflammation, focal, incidence ([4]; 200 mg/kg/day, F): 2/5 | Liver: Hepatocyte hypertrophy: Centrilobular (compatible with SER), incidence ([4]; 200 mg/kg/day, F): 1/5 | Liver: Increased mitoses, incidence ([4]; 200 mg/kg/day, F): 1/5 | Liver: Inflammation, portal, incidence ([4]; 200 mg/kg/day, F): 3/5 | Liver: Pyogranuloma, focal, incidence ([4]; 200 mg/kg/day, F): 3/5 | Number of animals/dose that tolerated 5 doses ([4]; 200 mg/kg/day, F): 5/5 | Tail: Acute necrosis with vasculitis, thrombosis, and hemorrhage, incidence ([4]; 200 mg/kg/day, F): 4/5 | Tail: Ulcerative dermatitis, incidence ([4]; 200 mg/kg/day, F): 2/5 | Body Weights Avg. ([4]; 200 mg/kg/day, Female): 24 grams | Epididymus: Oligospermia, incidence ([4]; 200 mg/kg/day, M): 1/5 | Heart: Interstitial fat, increased, incidence ([4]; 200 mg/kg/day, M): 1/5 | Liver: Ito cell hypertrophy, incidence ([4]; 200 mg/kg/day, M): 1/5 | Liver: Pyogranuloma, focal, incidence ([4]; 200 mg/kg/day, M): 2/5 | Number of animals/dose that tolerated 5 doses ([4]; 200 mg/kg/day, M): 5/5 | Testes: Seminiferous tubular degeneration, incidence ([4]; 200 mg/kg/day, M): 1/5 | Body Weights Avg. ([4]; 200 mg/kg/day, Male): 24 grams | Clinical Signs ([4]; 250 mg/kg/day IV daily x5): 2 M tail necr.: amputate | Liver: Focus of Alteration, eosinophilic, incidence ([4]; 250 mg/kg/day, F): 1/5 | Liver: Hepatocyte hypertrophy: Centrilobular (compatible with SER), incidence ([4]; 250 mg/kg/day, F): 1/5 | Liver: Inflammation, portal, incidence ([4]; 250 mg/kg/day, F): 2/5 | Liver: Pyogranuloma, focal, incidence ([4]; 250 mg/kg/day, F): 1/5 | Lung: Inflammation, focal, incidence ([4]; 250 mg/kg/day, F): 1/5 | Number of animals/dose that tolerated 4 doses ([4]; 250 mg/kg/day, F): 1/5 | Number of animals/dose that tolerated 5 doses ([4]; 250 mg/kg/day, F): 4/5 | Body Weights Avg. ([4]; 250 mg/kg/day, Female): 24 grams | Epididymus: Oligospermia, incidence ([4]; 250 mg/kg/day, M): 1/5 | Liver: Hepatocyte hypertrophy: Centrilobular (compatible with SER), incidence ([4]; 250 mg/kg/day, M): 5/5 | Liver: Pyogranuloma, focal, incidence ([4]; 250 mg/kg/day, M): 3/5 | Number of animals/dose that tolerated 5 doses ([4]; 250 mg/kg/day, M): 5/5
